Source: EP0129409B1, “Thiazolo - and thiazinobenzimidazoles” (JOHN WYETH & BROTHER LIMITED, priority 1983, dated 1984)
Read-outs that look alike come from different tables or passages of the source.

Experiments:
H⁺/K⁺ ATPase = biological target: T1, H⁺/K⁺ ATPase (Oryctolagus cuniculus, UniProt P27112); assay: inhibition of 14C-aminopyrine uptake in rabbit isolated gastric glands stimulated by DBcAMP or high K+; assay type: cell-based; conditions: % inhibition of the maximum response to the secretagogue; for inhibition at 10 µM: at 10⁻⁵M
T1 construct: Rabbit gastric glands are isolated from gastric mucosa from the corpus region of the stomach; from tissue; host or cells: rabbit isolated gastric glands (gastric mucosa, corpus region of the stomach)
Experimental: Compounds of formula I were also tested for anti-secretory activity by their ability to inhibit the highly specific proton transporting enzyme H⁺/K⁺ ATPase.
Potential H⁺/K⁺ ATPase inhibitors were evaluated by a technique involving the measurement of aminopyrine accumulation in rabbit isolated gastric glands. Aminopyrine accumulates in acid-secreting cells; therefore, uptake of aminopyrine is increased by secretagogues and an inhibitor of acid secretion will reduce the response to one or more secretagogues depending upon its site of action. […] The following test procedure is used: Rabbit gastric glands are isolated from gastric mucosa from the corpus region of the stomach by a method based on one described by Berglindh T., Obrink K.J., Acta Physiol. Scand.
Results are expressed as the % inhibition of the maximum response to the secretagogue induced by the test compound. An inhibitor of H⁺/K⁺ ATPase would be expected to reduce the response to both secretagogues.

[1] = antisecretory activity, test of Shay, Sun and Gruenstein; conditions: in vivo
stress-induced erosion = stress-induced erosion test of Senay and Levine (anti-ulcer activity); assay type: in vivo; conditions: decrease in ulcer formation as percentage of control score, rats, oral
Experimental: Anti-ulcer activity was determined by the stress-induced erosion test of Senay and Levine, Proc. Soc. Exp. Biol. Med., 124, 1221-3 (1967). The procedure used was as follows.
Male rats, weighing between 80 and 120 gms. were fasted overnight with water ad lib. The rats were then divided into groups of six and dosed orally with the test drug in the form of a solution or with the vehicle alone, 0.5% carboxymethylcellulose, in a volume of 10ml/kg.
After 30 minutes the rats were inserted into aluminium restraining tubes measuring 1⁵/₈ inches in diameter by 5 inches and placed in the cold (4±1°C) for 3 hours. Immediately after cold exposure the rats were killed with intracranial alcohol and their stomachs excised and opened along the greater curvature. Each stomach was washed gently free of contents with warm tap water and pinned out on a board. The condition of the gastric mucosa was then scored from 0 to 6 on the following scale:
The maximum possible score for each animal was 6 and for the group 36. Decrease in ulcer formation was calculated as a percentage of the control score, i.e. [formula] The statistical significance of the effect is assessed by Student's t-test.

[2] = at 10⁻⁴M, read-out: % Inhibition to stimulation by: DBcAMP
[3] = at 10⁻⁴M, read-out: % Inhibition to stimulation by: K⁺

T1 sequence (P27112 whole entry): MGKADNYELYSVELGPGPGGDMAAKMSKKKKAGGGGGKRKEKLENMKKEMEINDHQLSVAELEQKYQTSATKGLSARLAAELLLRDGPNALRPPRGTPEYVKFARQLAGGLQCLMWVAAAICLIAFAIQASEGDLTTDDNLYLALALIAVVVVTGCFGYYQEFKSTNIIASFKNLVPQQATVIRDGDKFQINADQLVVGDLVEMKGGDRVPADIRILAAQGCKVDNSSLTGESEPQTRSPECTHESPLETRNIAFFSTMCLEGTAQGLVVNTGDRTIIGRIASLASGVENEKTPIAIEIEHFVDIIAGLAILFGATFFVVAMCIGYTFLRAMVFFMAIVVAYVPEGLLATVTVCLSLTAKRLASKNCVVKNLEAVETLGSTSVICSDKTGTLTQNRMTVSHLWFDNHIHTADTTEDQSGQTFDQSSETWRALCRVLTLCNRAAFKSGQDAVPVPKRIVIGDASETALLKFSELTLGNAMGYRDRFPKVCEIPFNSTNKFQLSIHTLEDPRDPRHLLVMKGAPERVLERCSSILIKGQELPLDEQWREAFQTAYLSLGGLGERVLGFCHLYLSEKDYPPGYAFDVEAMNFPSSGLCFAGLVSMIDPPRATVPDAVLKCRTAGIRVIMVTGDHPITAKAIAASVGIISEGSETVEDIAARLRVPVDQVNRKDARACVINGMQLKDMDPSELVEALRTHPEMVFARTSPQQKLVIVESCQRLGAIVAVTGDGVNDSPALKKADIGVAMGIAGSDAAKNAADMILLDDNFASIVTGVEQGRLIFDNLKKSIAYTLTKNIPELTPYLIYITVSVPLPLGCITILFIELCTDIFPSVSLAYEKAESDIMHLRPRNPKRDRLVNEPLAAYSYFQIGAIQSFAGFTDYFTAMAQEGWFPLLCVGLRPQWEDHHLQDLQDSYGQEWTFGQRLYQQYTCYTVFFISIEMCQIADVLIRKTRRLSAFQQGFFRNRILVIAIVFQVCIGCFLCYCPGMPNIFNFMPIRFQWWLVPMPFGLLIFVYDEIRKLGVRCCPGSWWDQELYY
T1 sequence (P18597 whole entry partner): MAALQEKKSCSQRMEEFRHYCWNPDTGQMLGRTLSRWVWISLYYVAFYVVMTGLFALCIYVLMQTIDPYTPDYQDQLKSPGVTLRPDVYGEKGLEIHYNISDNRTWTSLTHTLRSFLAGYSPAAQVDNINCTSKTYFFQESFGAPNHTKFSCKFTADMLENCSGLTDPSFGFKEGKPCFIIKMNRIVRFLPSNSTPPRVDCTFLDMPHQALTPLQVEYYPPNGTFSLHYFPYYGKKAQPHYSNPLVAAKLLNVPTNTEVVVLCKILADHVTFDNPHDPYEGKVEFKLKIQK

Row | Molecule | inhibition at 100 µM (H⁺/K⁺ ATPase; [2]) [%] | inhibition at 100 µM (H⁺/K⁺ ATPase; [3]) [%] | Antisecretory activity [1] | further results
1 | 6-Ethoxy-2-(2-pyridyl)thiazolo[3,2-a]-benzimidazole and 7-ethoxy-2-(2-pyridyl)thiazolo[3,2-a]benzimidazole [Example 24] | – | – | – | % Inhibition to stimulation by: DBcAMP (H⁺/K⁺ ATPase; at 10⁻⁴M, 100 µM): 68% at 10⁻⁴M; % Inhibition to stimulation by: K⁺ (H⁺/K⁺ ATPase; at 10⁻⁴M, 100 µM): 162% at 10⁻⁴M
2 | Cc1cc2nc3n(c2cc1C)CC(c1ccccn1)[S+]3[O-] (centres unmarked) [Example 13, 2,3-Dihydro-6,7-dimethyl-2-(2-pyridyl)thiazolo[3,2-a]-benzimidazole-1-oxide] | 30 | 209 | particularly active | –
3 | 6-Chloro-2,3-dihydro-2-(2-pyridyl)thiazolo[3,2-a]-benzimidazole-1-oxide and 7-chloro-2,3-dihydro-2-(2-pyridyl)-thiazolo[3,2-a]benzimidazole-1-oxide [Example 18] | – | – | particularly active | –
4 | c1ccc(C2Cn3c(nc4ccccc43)S2)cc1 (centres unmarked) [Example 3, 2,3-Dihydro-2-phenylthiazolo[3,2-a]benzimidazole] | – | – | – | Inhibition (stress-induced erosion; Dose 100 mg/kg): 74%
5 | 2,3-Dihydro-6-methyl-2-(2-pyridyl)thiazolo[3,2-a]-benzimidazole and 2,3-Dihydro-7-methyl-2-(2-pyridyl)-thiazolo [3,2-a]benzimidazole [Example 7] | – | – | particularly active | –
6 | c1ccc(-c2cccc(-c3cn4c(nc5ccccc54)s3)n2)cc1 [Example 37, 2-[2-(6-Phenylpyridyl)]thiazolo[3,2-a]benzimidazole] | 22 | 381 | – | –
7 | Clc1cc2nc3n(c2cc1Cl)CC(c1ccccn1)S3 (centres unmarked) [Example 8, 6,7-Dichloro-2,3-dihydro-2-(2-pyridyl)thiazolo[3,2-a]-benzimidazole] | 50.5 | – | – | –
8 | 2,3-Dihydro-6-methyl-2-(2-pyridyl)thiazolo[3,2-a]-benzimidazole-1-oxide and 2,3-Dihydro-7-methyl-2-(2-pyridyl)thiazolo[3,2-a]benzimidazole-1-oxide [Example 10] | – | – | particularly active | –
9 | Cc1ccc(C2Cn3c(nc4cc(Cl)c(Cl)cc43)S2)cn1 (centres unmarked) [Example 6, 6,7-Dichloro-2,3-dihydro-2-(6-methylpyrid-3-yl)thiazolo-[3,2-a]benzimidazole] | 90 | 187 | – | –
10 | c1ccc(C2Cn3c(nc4ccccc43)S2)nc1 (centres unmarked) [Example 1, 2,3-Dihydro-2-(2-pyridyl)thiazolo[3,2-a]benzimidazole] | – | – | particularly active | Inhibition (stress-induced erosion; Dose 30 mg/kg): 86%; Inhibition (stress-induced erosion; Dose 100 mg/kg): 75%
11 | CCc1ccc(-c2cn3c(nc4ccccc43)s2)nc1 [Example 27, 2-(2-(5-Ethylpyridyl))thiazolo[3,2-a]benzimidazole] | 56 | 142 | – | –
12 | [O-][S+]1c2nc3ccccc3n2CC1c1ccccn1 (centres unmarked) [Example 2, 2,3-Dihydro-2-(2-pyridyl)thiazolo[3,2-a]benzimidazole-1-oxide] | 74 | 91 | particularly active | inhibition at 10 µM (H⁺/K⁺ ATPase; read-out: % Inhibition to stimulation by: DBcAMP): 73%; inhibition at 10 µM (H⁺/K⁺ ATPase; read-out: % Inhibition to stimulation by: K⁺): 26%
13 | Cc1cc2nc3n(c2cc1C)CC(c1ccccn1)S3 (centres unmarked) [Example 9, 2,3-Dihydro-6,7-dimethyl-2-(2-pyridyl)thiazolo[3,2-a]-benzimidazole] | – | – | particularly active | Inhibition (stress-induced erosion; Dose 100 mg/kg): 82%
